Structures are written as SMILES. Where two headings read alike, the source gives them in different places. A value given as a limit tells only on which side of the number the result lay.

In US10934294B2, “Substituted pyrazolo[3,4-d]pyrimidines as PDE9 inhibitors” (Merck Sharp & Dohme Corp., priority 2017, dated 2021) one finds Ki data, which are given here for eight molecules.

The assay concerns the target Human PDE9 (PDE9A2) (Homo sapiens (Human), UniProt O76083). Briefly: PDE9 IMAP fluorescence polarization (FP) inhibition assay. Format: biochemical. In general terms: In fluorescence polarisation assays a small probe gives low polarisation when free and higher when bound to something large.
Where [1] appears, read: apparent inhibition constant, FAM-cGMP substrate 50 nM, room temperature, read-out: PDE9 IMAP Ki.
Setting [2] is: read-out: PDE9 IMAP Ki, apparent inhibition constant, FAM-cGMP substrate 50 nM, room temperature.

Human PDE9 (PDE9A2), sequence (O76083 other isoform, or with tags, fused parts or gaps): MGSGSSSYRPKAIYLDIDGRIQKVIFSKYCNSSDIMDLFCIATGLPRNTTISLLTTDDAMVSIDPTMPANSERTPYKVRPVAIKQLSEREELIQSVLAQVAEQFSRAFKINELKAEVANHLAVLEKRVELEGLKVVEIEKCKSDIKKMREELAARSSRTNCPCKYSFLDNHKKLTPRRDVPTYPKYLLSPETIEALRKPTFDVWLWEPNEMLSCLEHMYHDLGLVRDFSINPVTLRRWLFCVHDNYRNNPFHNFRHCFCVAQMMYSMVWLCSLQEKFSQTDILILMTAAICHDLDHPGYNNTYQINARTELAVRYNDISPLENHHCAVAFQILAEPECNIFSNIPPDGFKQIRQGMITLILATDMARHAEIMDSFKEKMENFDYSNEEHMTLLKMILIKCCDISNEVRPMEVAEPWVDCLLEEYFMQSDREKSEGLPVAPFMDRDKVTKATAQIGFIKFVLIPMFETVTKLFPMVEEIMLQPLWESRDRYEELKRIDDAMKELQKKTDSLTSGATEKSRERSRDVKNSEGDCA

For the molecule `C[C@H](c1ccc(C(F)(F)F)nc1)n1nc(C#N)c2c(=O)[nH]c([C@@H]3CC[C@H]3c3nc(C(F)F)cc(C(F)F)n3)nc21` [Example 116, 6-((1R,2R)-2-(4,6-bis(difluoromethyl)pyrimidin-2-yl)cyclobutyl)-4-oxo-1-((R)-1-(6-(trifluoromethyl)-pyridin-3-yl)ethyl)-4,5-dihydro-1H-pyrazolo[3,4-d]pyrimidine-3-carbonitrile], the Ki under setting [1] is 8.3 nM.

Consider `CC(c1cncc(F)c1)n1nc(C#N)c2c(=O)[nH]c(C3CCC3c3ncccn3)nc21` (centres unmarked) [Example 66, 1-(1-(5-fluoropyridin-3-yl)ethyl)-4-oxo-6-(2-(pyrimidin-2-yl)cyclobutyl)-4,5-dihydro-1H-pyrazolo[3,4-d]pyrimidine-3-carbonitrile], for which the Ki under setting [1] was more than 67.5 nM.

Molecule `CC(c1cncc(F)c1)n1nc(C#N)c2c(=O)[nH]c(C3CCC3c3ncccn3)nc21` (single isomer, unassigned) [Example 64, 1-(1-(5-fluoropyridin-3-yl)ethyl)-4-oxo-6-(2-(pyrimidin-2-yl)cyclobutyl)-4,5-dihydro-1H-pyrazolo[3,4-d]pyrimidine-3-carbonitrile] had a Ki of more than 67.5 nM.

On to `CC(c1cnn(C)c1)n1nc(C#N)c2c(=O)[nH]c(C3CCC3c3ncccn3)nc21` (single isomer, unassigned) [Example 69, 1-(1-(1-methyl-1H-pyrazol-4-yl)ethyl)-4-oxo-6-(2-(pyrimidin-2-yl)cyclobutyl)-4,5-dihydro-1H-pyrazolo[3,4-d]pyrimidine-3-carbonitrile], for which the Ki under setting [2] was more than 67.5 nM.

`CC(c1cnn(C)c1)n1nc(C#N)c2c(=O)[nH]c(C3CCC3c3ncccn3)nc21` (centres unmarked) [Example 71, 1-(1-(1-methyl-1H-pyrazol-4-yl)ethyl)-4-oxo-6-(2-(pyrimidin-2-yl)cyclobutyl)-4,5-dihydro-1H-pyrazolo[3,4-d]pyrimidine-3-carbonitrile] registered a Ki of more than 67.5 nM.

For `CC(c1cncc(F)c1)n1nc(C#N)c2c(=O)[nH]c(C3CCC3c3ncccn3)nc21` (single isomer, unassigned) [Example 65, 1-(1-(5-fluoropyridin-3-yl)ethyl)-4-oxo-6-(2-(pyrimidin-2-yl)cyclobutyl)-4,5-dihydro-1H-pyrazolo[3,4-d]pyrimidine-3-carbonitrile], the Ki under setting [2] was more than 67.5 nM.

The molecule `CC(c1cnn(C)c1)n1nc(C#N)c2c(=O)[nH]c(C3CCC3c3ncccn3)nc21` (single isomer, unassigned) [Example 68, 1-(1-(1-methyl-1H-pyrazol-4-yl)ethyl)-4-oxo-6-(2-(pyrimidin-2-yl)cyclobutyl)-4,5-dihydro-1H-pyrazolo[3,4-d]pyrimidine-3-carbonitrile] showed a Ki of more than 67.5 nM.

In the case of `CC(C1CCOCC1)n1nc(C#N)c2c(=O)[nH]c(C3CCC3c3ncc(F)cn3)nc21` (centres unmarked) [Example 85, 6-(2-(5-fluoropyrimidin-2-yl)cyclobutyl)-4-oxo-1-(1-(tetrahydro-2H-pyran-4-yl)ethyl)-4,5-dihydro-1H-pyrazolo[3,4-d]pyrimidine-3-carbonitrile], the Ki under setting [1] is more than 607 nM.
